From patent US9175045B2, “Peptidomimetic macrocycles” (Aileron Therapeutics, Inc., priority 2008, dated 2015)
Numbered stars: 1 amine (or outer) side, 2 acyl side, 3 side chain; on linkers, the order of the positions; unused ones are H or OH. Bridge positions count the residues as written; N and C are the ends. Square brackets hold non-standard residues; d marks the D form. Peptide text beside a SMILES is read from it. ξ: configuration not given here. ξαMeNle(6-ylidene) = CC(CCCC=[*:3])(N[*:1])C(=O)[*:2]

Columns and labels:
Jurkat cell line = type: cell-based; details: 24 h
Procedure, shortened: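 Jurkat E6-1 cells in Opti-MEM, serum-free or with 2% or 10% human serum, were treated 24 h at 37° C. with crosslinked polypeptides: final 0.6-20 μM serum-free, 3.125-100 μM with serum. Viability measured by CellTiter-Glo luminescence; Triton X-100 and DMSO-only wells served as controls.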

[1] = Estimated free fraction in blood, calculated from Kd* with [HSA]total 700 μM; type: in vitro ADME; details: human; [HSA]total set at 700 μM; read-out: Free Fraction est. in blood
Experimental: The free fraction in blood is estimated per the following equation, as derived by Trainor, Expert Opin. Drug Disc., 2007, 2(1):51-64, where [HSA]total is set at 700 μM. [formula]

human serum proteins = test: Apparent affinity to human serum proteins (Kd*) by EC50 shift analysis; type: in vitro ADME; details: nonlinear regression of EC50 shift with serum, n = 1, P = 700 μM for 100% serum
Procedure, shortened: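 Kd* fitted by nonlinear regression of EC50 shifts across increasing serum concentrations. Shift attributed entirely to HSA (P = 700 µM at 100% serum, 70 µM at 10%), with 1:1 binding stoichiometry fixed. Whole-blood EC′50 estimated with P = 700 µM.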

EC50 (Jurkat cell line): 2400 nM
fraction unbound [1]: 0.001
Kd (human serum proteins): 600 nM
SMILES: CC[C@H](C)[C@H](NC(=O)[C@H](CCCNC(=N)N)NC(=O)[C@H](CCCNC(=N)N)NC(=O)[C@H](CCCNC(=N)N)NC(=O)[C@H](CC(C)C)NC(=O)[C@H](C)NC(C)=O)C(=O)NC1(C)CCCC=CCCCC(C)(C(=O)N[C@@H](Cc2c[nH]cn2)C(=O)N[C@@H](Cc2c[nH]cn2)C(=O)N[C@@H](CO)C(=O)N[C@H](C(N)=O)[C@@H](C)O)NC(=O)[C@H](C)NC(=O)[C@H](CS)NC(=O)[C@H](CC(C)C)NC1=O (stereo partly drawn) [Compound 19, Ac- ALRRRI$LCA$HHST-NH2] (Ac-ALRRRI[ξαMeNle(6-ylidene)]LCA[ξαMeNle(6-ylidene)]HHST-NH2; staple 7-11)
